Data taken from patent US11149047B2, “Aryl imidazoles for treatment of cancer” (Aptose Biosciences Inc., priority 2017, dated 2021).

Experiments:
Raji/COMPOUND IR cells = assay: Cellular pharmacology: intracellular accumulation and efflux by LC-MS/MS; format: in vitro ADME, human
Procedure: Cells exposed to COMPOUND I or Fe(COMPOUND I)3 were homogenized in acetonitrile containing 5 ng of a deuterated COMPOUND I standard. Samples were analyzed at the UCSD Molecular Mass Spectrometry Facility employing an Agilent 1260 liquid chromatograph (LC) system coupled with a Thermo LCQdeca mass spectrometer using positive ion mode electrospray ionization (ESI) as the ion source. The ESI ion source voltage was set at 5 kV, with sheath gas flow rate of 80 units, auxiliary gas flow rate of 20 units, and capillary temperature of 250° C., respectively. A Phenomenex Kinetex Biphenyl column (ID 2.1 mm×length 50 mm, particle size 2.6 μm) was utilized for LC separation using water with 0.1% formic acid as the mobile phase A and acetonitrile with 0.1% formic acid as the mobile phase B. The LC flow rate was set at 0.30 mL/min. The LC gradient increased from 5% mobile phase B to 95% mobile phase B in 10 minutes, held at 95% B for 2 minutes, returned to 5% B in 1 minute, and then held at 5% B for 6 minutes. […] Selected reaction monitoring (SRM) mode was used to acquire the m/z 353 and m/z 359 fragmental peaks. The SRM peak area ratio (COMPOUND I/COMPOUND I-d6) related to the amount of spiked COMPOUND I-d6 was used for the quantification of COMPOUND I and Fe(COMPOUND I)3 in the samples. The same column, gradient and flow rate were used for detection of Fe(COMPOUND I)3 which was detected using an Agilent 1100 HPLC and Orbitrap XL (Thermo) mass spectrometer employing a Thermo IonMax ESI interface. The Fe(COMPOUND I)3 eluted around 11.5 minutes with these conditions. A 10:1 flow split was used for the eluent flow rate of 0.3 mL/min, so that approximately 0.030 mL/min was introduced into the ESI after the split. […]
Resistance in the Raji/COMPOUND IR cells may be due to alterations in influx or efflux, intracellular detoxification or a change in the primary target of the drug. The intracellular accumulation of both native COMPOUND I and the Fe(COMPOUND I)3 in Raji and Raji/COMPOUND IR cells incubated with either native COMPOUND I or the Fe(COMPOUND I)3 complex was monitored.

[1] = system: γH2AX foci in CAOV3 cells; assay: Immunofluorescence staining of γH2AX foci; format: cell-based, human; conditions: CAOV3, time course, FIG. 2C
Procedure: Cells were harvested and washed with PBS twice, fixed in Z-fix solution (buffered zinc formalin fixatives, Anatech, Inc, Creek, Mich.) and permeabilized and blocked with 0.3% Triton X-100 in PBS containing 5% bovine serum albumin. The cells were then incubated with γ-H2AX antibody (1:250 dilution in 0.3% Triton X-100 in PBS containing 1% bovine serum albumin) overnight followed by three washes. Cells were incubated for 1 h with fluorescent-conjugated secondary antibodies (1:1000 dilution) followed by three washes. Slides were mounted with ProLong Gold antifade reagent with 4′,6-diamidino-2-phenylindole (DAPI) to stain cell nuclei (Molecular Probes). Fluorescence was viewed with Keyence Fluorescent Microscope using a 100× objective and quantitated with Image J software (the National Institutes of Health).
The structure of COMPOUND I is similar to drugs that bind to quadruplex structures in DNA which results in strand breaks; this led to the investigation of whether COMPOUND I caused damage to DNA. The parental Raji cells were treated with 0.5 μM COMPOUND I for increasing periods of time and induction of DNA damage was assessed by accumulation of the phosphorylated forms of ATM and γH2AX measured by Western blot analysis. […]

[2] = system: BIK, BAD, MCL-1 in Raji/COMPOUND IR cells; assay: Western blot of proteins involved in apoptosis; format: cell-based, human
Description: In order to delineate which effects of COMPOUND I are most closely linked to sensitivity for this drug, a subline of the Raji Burkitt's lymphoma cell line that had acquired resistance (Raji/COMPOUND IR) as a result of repeated exposure to progressively higher concentrations of COMPOUND I over a period of 6 months was developed. Resistance evolved slowly and progressively without an abrupt change at any point during the selection process. […] This is in the same range as has been reported for freshly isolated AML blasts and CLL cells. Zhang et al., “Inhibition of c-Myc by ATPO-COMPOUND I as an Innovative Therapeutic Approach to Induce Cell Cycle Arrest and Apoptosis in Acute Myeloid Leukemia [abstract],” Blood 2016; 128:1716; Kurtz et al., “Broad Activity of COMPOUND I in AML and other Hematologic Malignancies Correlates with KFL4 Expression Level [abstract],” Blood 2015; 126:1358, both of which are hereby incorporated by reference. […] The level of resistance remained stable for at least 3 months during culture in drug-free media (FIG. 4A). Raji/COMPOUND IR cells grew slightly faster than the parental cells but the difference was not statistically significant.

[3] = system: MYC mRNA stability in EOL-1 cells; assay: RNA decay assay; format: cell-based; conditions: 500 nmol/L 3 hours, then 1 μmol/L actinomycin D
Procedure: Cells were treated for 3 hours with vehicle DMSO or 500 nmol/L COMPOUND I followed by 1 μmol/L actinomycin D. Aliquots of cells were taken before and then every 10 minutes after actinomycin D addition for RNA extraction and cDNA synthesis as for qRT-PCR analysis. Levels of MYC and 28s rRNA were analyzed using specific primers (Table 8) and MYC RNA expression was normalized to 28 s rRNA [2^(28 s Ct value−MYC Ct value)].
Regulation of MYC expression is a complex process that involves MYC transcription, mRNA stability, and protein turnover. ChIP-qPCR analysis for H3K27ac, a well-established marker of active chromatin, was performed to assess transcriptional competency of the MYC gene promoter after treatment with COMPOUND I (FIG. 19D). […] To determine whether COMPOUND I affected MYC mRNA stability, an RNA decay assay was performed on EOL-1 cells.

Cc1[nH]c2ccc(F)cc2c1-c1nc2c3cccnc3c3ncccc3c2[nH]1 [COMPOUND I, 2-(5-fluoro-2-methyl-1H-indol-3-yl)-1H-imidazo[4,5-f][1,10]phenanthroline]
rate of accumulation in Raji/COMPOUND IR vs Raji cells (Raji/COMPOUND IR cells; 0.5 μM, FIG. 6A, 6B): severely reduced | Rate of efflux over first 2 hours (Raji/COMPOUND IR cells; Raji/COMPOUND IR cells, mean ± SEM, n = 6): −0.26 ± 0.025 log fmole/10^7 cells/h | difference in efflux over first 2 h between Raji and Raji/COMPOUND IR (Raji/COMPOUND IR cells; after loading of the cells): no apparent difference in the efflux | number of γH2AX foci [1]: increase in the number of foci was detectable at 1 h | changes in BIK, BAD, MCL-1 ([2]; 0.5 μM, 24 h): None of these changes were detected | induction of apoptosis ([2]; concentration that induced apoptosis in Raji sensitive cells): failed to trigger apoptosis | MYC mRNA levels in pretreated cells versus vehicle [3]: clear decrease in MYC mRNA levels
